Results from US4382892A, “Benzoxazine derivatives” (Daiichi Seiyaku Co., Ltd., priority 1980, dated 1983).
≈ marks a conversion by molar mass, not a printed value.

What was measured:
mice = mice (i.v.)
in vivo = conditions: mouse, iv
[1] = system: Bacillus subtilis, ATCC 6633; test: Antibacterial activity in vitro, MIC (Table 2); format: cell-based; conditions: ATCC6633, MullerHinton Bouillon, 10^6/ml, 37° C., 18 hours, read-out: Minimum Inhibitory Concentration (MIC)
Protocol: (§1) *Determined in MullerHinton Bouillon, 10^6 /ml of bacteria were seede
(§2) and incubated at 37° C. for 18 hours.

Escherichia coli NIHJ [2] = test: Antibacterial activity in vitro, MIC (Table 2); format: cell-based; conditions: MullerHinton Bouillon, 10^6/ml, 37° C., 18 hours, read-out: Minimum Inhibitory Concentration (MIC)
Protocol: as §1, §2

[3] = system: Serratia marcescens, 13001; test: Antibacterial activity in vitro, MIC (Table 2); format: cell-based; conditions: MullerHinton Bouillon, 10^6/ml, 37° C., 18 hours, read-out: Minimum Inhibitory Concentration (MIC)
Protocol: as §1, §2

[4] = system: Pseudomonas aeruginosa, 2063; test: Antibacterial activity in vitro, MIC (Table 2); format: cell-based; conditions: MullerHinton Bouillon, 10^6/ml, 37° C., 18 hours, read-out: Minimum Inhibitory Concentration (MIC)
Protocol: as §1, §2

Proteus mirabilis, 1287 [5] = test: Antibacterial activity in vitro, MIC (Table 2); format: cell-based; conditions: MullerHinton Bouillon, 10^6/ml, 37° C., 18 hours, read-out: Minimum Inhibitory Concentration (MIC)
Protocol: as §1, §2

[6] = system: Streptococcus pyogenes, G-36; test: Antibacterial activity in vitro, MIC (Table 2); format: cell-based; conditions: G36, MullerHinton Bouillon, 10^6/ml, 37° C., 18 hours, read-out: Minimum Inhibitory Concentration (MIC)
Protocol: as §1, §2

[7] = system: Shigella flexneri 2a, 5503; test: Antibacterial activity in vitro, MIC (Table 2); format: cell-based; conditions: MullerHinton Bouillon, 10^6/ml, 37° C., 18 hours, read-out: Minimum Inhibitory Concentration (MIC)
Protocol: as §1, §2

[8] = system: Pseudomonas sepacia, II D 5132; test: Antibacterial activity in vitro, MIC (Table 2); format: cell-based; conditions: IID5132, MullerHinton Bouillon, 10^6/ml, 37° C., 18 hours, read-out: Minimum Inhibitory Concentration (MIC)
Protocol: as §1, §2

[9] = system: Klebsiella pneumoniae, 501; test: Antibacterial activity in vitro, MIC (Table 2); format: cell-based; conditions: MullerHinton Bouillon, 10^6/ml, 37° C., 18 hours, read-out: Minimum Inhibitory Concentration (MIC)
Protocol: as §1, §2

[10] = system: Staphylococcus aureus, 209 P; test: Antibacterial activity in vitro, MIC (Table 2); format: cell-based; conditions: MullerHinton Bouillon, 10^6/ml, 37° C., 18 hours, read-out: Minimum Inhibitory Concentration (MIC)
Protocol: as §1, §2

[11] = system: Enterobacter cloacae, 12001; test: Antibacterial activity in vitro, MIC (Table 2); format: cell-based; conditions: MullerHinton Bouillon, 10^6/ml, 37° C., 18 hours, read-out: Minimum Inhibitory Concentration (MIC)
Protocol: as §1, §2

Proteus vulgaris, 3167 [12] = test: Antibacterial activity in vitro, MIC (Table 2); format: cell-based; conditions: MullerHinton Bouillon, 10^6/ml, 37° C., 18 hours, read-out: Minimum Inhibitory Concentration (MIC)
Protocol: as §1, §2

[13] = system: Bacillus subtilis, ATCC 6633; test: Antibacterial activity in vitro, MIC (Table 1); format: cell-based; conditions: ATCC6633, dilution method on plate culture (heart infusion agar), 10^6/ml, 37° C., 18 hours, read-out: Minimum Inhibitory Concentration (MIC)
Protocol: (§3) *Determined by the standard method of the Japan Society of Chemotherapy:
(§4) dilution method on plate culture (heart infusion agar culture), 10^6
(§5) /ml of bacteria were seeded and incubated at 37° C. for 18 hours.

Escherichia coli NIHJ [14] = test: Antibacterial activity in vitro, MIC (Table 1); format: cell-based; conditions: read-out: Minimum Inhibitory Concentration (MIC)
Protocol: as §3, §4, §5

[15] = system: Serratia marcescens, 13001; test: Antibacterial activity in vitro, MIC (Table 1); format: cell-based; conditions: dilution method on plate culture (heart infusion agar), 10^6/ml, 37° C., 18 hours, read-out: Minimum Inhibitory Concentration (MIC)
Protocol: as §3, §4, §5

[16] = system: Pseudomonas aeruginosa, 2063; test: Antibacterial activity in vitro, MIC (Table 1); format: cell-based; conditions: dilution method on plate culture (heart infusion agar), 10^6/ml, 37° C., 18 hours, read-out: Minimum Inhibitory Concentration (MIC)
Protocol: as §3, §4, §5

Proteus mirabilis, 1287 [17] = test: Antibacterial activity in vitro, MIC (Table 1); format: cell-based; conditions: dilution method on plate culture (heart infusion agar), 10^6/ml, 37° C., 18 hours, read-out: Minimum Inhibitory Concentration (MIC)
Protocol: as §3, §4, §5

[18] = system: Streptococcus pyogenes, G-36; test: Antibacterial activity in vitro, MIC (Table 1); format: cell-based; conditions: G36, dilution method on plate culture (heart infusion agar), 10^6/ml, 37° C., 18 hours, read-out: Minimum Inhibitory Concentration (MIC)
Protocol: as §3, §4, §5

[19] = system: Shigella flexneri 2a, 5503; test: Antibacterial activity in vitro, MIC (Table 1); format: cell-based; conditions: dilution method on plate culture (heart infusion agar), 10^6/ml, 37° C., 18 hours, read-out: Minimum Inhibitory Concentration (MIC)
Protocol: as §3, §4, §5

[20] = system: Klebsiella pneumoniae, 501; test: Antibacterial activity in vitro, MIC (Table 1); format: cell-based; conditions: dilution method on plate culture (heart infusion agar), 10^6/ml, 37° C., 18 hours, read-out: Minimum Inhibitory Concentration (MIC)
Protocol: as §3, §4, §5

[21] = system: Staphylococcus aureus, 209 P; test: Antibacterial activity in vitro, MIC (Table 1); format: cell-based; conditions: dilution method on plate culture (heart infusion agar), 10^6/ml, 37° C., 18 hours, read-out: Minimum Inhibitory Concentration (MIC)
Protocol: as §3, §4, §5

[22] = system: Enterobacter cloacae, 12001; test: Antibacterial activity in vitro, MIC (Table 1); format: cell-based; conditions: read-out: Minimum Inhibitory Concentration (MIC)
Protocol: as §3, §4, §5

Proteus vulgaris, 3167 [23] = test: Antibacterial activity in vitro, MIC (Table 1); format: cell-based; conditions: read-out: Minimum Inhibitory Concentration (MIC)
Protocol: as §3, §4, §5

[24] = system: Pseudomonas sepacia, II D 1340; test: Antibacterial activity in vitro, MIC (Table 1); format: cell-based; conditions: IID1340, dilution method on plate culture (heart infusion agar), 10^6/ml, 37° C., 18 hours, read-out: Minimum Inhibitory Concentration (MIC)
Protocol: as §3, §4, §5

[25] = system: gram-negative and gram-positive bacteria (test organisms); test: Antibacterial activity (in vitro), comparison in words; format: cell-based; conditions: compounds of this invention versus known compounds / PPA
Protocol: as §3, §4, §5, §1, §2

[26] = Escherichia coli NIHJ, dilution method on plate culture (heart infusion agar), 10^6/ml, 37° C., 18 hours
[27] = Enterobacter cloacae, 12001, dilution method on plate culture (heart infusion agar), 10^6/ml, 37° C., 18 hours
[28] = Proteus vulgaris, 3167, dilution method on plate culture (heart infusion agar), 10^6/ml, 37° C., 18 hours

Structure (SMILES) | toxicity (in words) (mice) | LD50 (in vivo) [mg/kg] | MIC [1] [mg/L] | MIC (Escherichia coli NIHJ [2]) [mg/L] | MIC [3] [mg/L] | MIC [4] [mg/L] | MIC (Proteus mirabilis, 1287 [5]) [mg/L] | MIC [6] [mg/L] | MIC [7] [mg/L] | MIC [13] [mg/L] | MIC (Escherichia coli NIHJ [14]; [26]) [mg/L] | MIC [15] [mg/L] | MIC [16] [mg/L] | MIC (Proteus mirabilis, 1287 [17]) [mg/L] | MIC [18] [mg/L] | MIC [19] [mg/L] | MIC [20] [mg/L] | MIC [21] [mg/L] | MIC [22, 27] [mg/L] | MIC (Proteus vulgaris, 3167 [23]; [28]) [mg/L] | further results
CC1CCc2c(N3CCN(C)CC3)c(F)cc3c(=O)c(C(=O)O)cn1c23 (stereo not drawn) [8-(4-methyl-1-piperazinyl)-9-fluoro-5-methyl-6,7-dihydro-1-oxo-1H,5H-benz[ij]quinolizine-2-carboxylic acid, reference compound] | comparatively high toxicity | 135 |  |  |  |  |  |  |  |  |  |  |  |  |  |  |  |  |  |  | 
CC1COc2c(N3CCN(C)CC3)c(F)cc3c(=O)c(C(=O)O)cn1c23 (stereo not drawn) [Ia, 9-fluoro-10-(4-methyl-1-piperazinyl)-3-methyl-7-oxo-2,3-dihydro-7H-pyrido[1,2,3-de][1,4]benzoxazine-6-carboxylic acid] |  | 380 | 0.1 (≈ 0.277 µM) | ≤ 0.05 | 0.1 (≈ 0.277 µM) | 0.78 (≈ 2.16 µM) | 0.1 (≈ 0.277 µM) | 1.56 (≈ 4.32 µM) | ≤ 0.05 | 0.2 (≈ 0.553 µM) | ≤ 0.025 | 0.2 (≈ 0.553 µM) | 1.56 (≈ 4.32 µM) | 0.1 (≈ 0.277 µM) | 1.56 (≈ 4.32 µM) | 0.05 (≈ 0.138 µM) | 0.2 (≈ 0.553 µM) | 0.39 (≈ 1.08 µM) | 0.1 (≈ 0.277 µM) | 0.05 (≈ 0.138 µM) | MIC [8]: 12.5 mg/L (≈ 34.6 µM); MIC [9]: 0.39 mg/L (≈ 1.08 µM); MIC [10]: 0.39 mg/L (≈ 1.08 µM); MIC [11]: 0.1 mg/L (≈ 0.277 µM); MIC (Proteus vulgaris, 3167 [12]): ≤ 0.05 mg/L
CC1COc2c(N3CCNCC3)c(F)cc3c(=O)c(C(=O)O)cn1c23 (stereo not drawn) [Ib, 9-fluoro-3-methyl-7-oxo-10-(1-piperazinyl)-2,3-dihydro-7H-pyrido[1,2,3-de][1,4]benzoxazine-6-carboxylic acid] |  |  |  |  |  |  |  |  |  | 0.39 (≈ 1.12 µM) | ≤ 0.025 | 0.78 (≈ 2.25 µM) | 0.78 (≈ 2.25 µM) | 0.1 (≈ 0.288 µM) | 3.13 (≈ 9.01 µM) | 0.05 (≈ 0.144 µM) | 0.39 (≈ 1.12 µM) | 0.39 (≈ 1.12 µM) | 0.2 (≈ 0.576 µM) | 0.05 (≈ 0.144 µM) | MIC [24]: 12.5 mg/L (≈ 36 µM)
CC1COc2c(N3CCC(O)C3)c(F)cc3c(=O)c(C(=O)O)cn1c23 (stereo not drawn) [Ic, 9-fluoro-10-(3-hydroxy-1-pyrrolidinyl)-3-methyl-7-oxo-2,3-dihydro-7H-pyrido[1,2,3-de][1,4]benzoxazine-6-carboxylic acid] |  |  |  |  |  |  |  |  |  | 0.05 (≈ 0.144 µM) | 0.05 (≈ 0.144 µM) | 0.78 (≈ 2.24 µM) | 1.56 (≈ 4.48 µM) | 0.1 (≈ 0.287 µM) | 0.78 (≈ 2.24 µM) | 0.1 (≈ 0.287 µM) | 0.78 (≈ 2.24 µM) | 0.1 (≈ 0.287 µM) | 0.2 (≈ 0.574 µM) | 0.1 (≈ 0.287 µM) | 
CC1COc2c(N3CCN(C)CC3)c(Cl)cc3c(=O)c(C(=O)O)cn1c23 (stereo not drawn) [Id, 9-chloro-3-methyl-10-(4-methyl-1-piperazinyl)-7-oxo-2,3-dihydro-7H-pyrido[1,2,3-de][1,4]benzoxazine-6-carboxylic acid] |  |  | 0.1 (≈ 0.265 µM) | ≤ 0.05 | 0.1 (≈ 0.265 µM) | 0.78 (≈ 2.06 µM) | 0.1 (≈ 0.265 µM) | 12.5 (≈ 33.1 µM) | ≤ 0.05 |  |  |  |  |  |  |  |  |  |  |  | MIC [8]: 6.25 mg/L (≈ 16.5 µM); MIC [9]: 0.2 mg/L (≈ 0.529 µM); MIC [10]: 0.2 mg/L (≈ 0.529 µM); MIC [11]: ≤ 0.05 mg/L; MIC (Proteus vulgaris, 3167 [12]): ≤ 0.05 mg/L
CCn1cc(C(=O)O)c(=O)c2cnc(N3CCNCC3)nc21 [PPA, 8-ethyl-5,8-dihydro-5-oxo-2-(1-piperazinyl)-pyrido[2,3-d]pyrimidine-6-carboxylic acid, reference compound] | low toxicity |  |  |  |  |  |  |  |  | 6.25 (≈ 20.6 µM) |  | 6.25 (≈ 20.6 µM) | 25 (≈ 82.4 µM) | 6.25 (≈ 20.6 µM) | > 100 | 1.56 (≈ 5.14 µM) | 6.25 (≈ 20.6 µM) | 12.5 (≈ 41.2 µM) |  |  | antibacterial activity (in words) [25]: much weaker than the compounds of this invention; MIC (Escherichia coli NIHJ [14]; Escherichia coli, 18 h): 1.56 mg/L (≈ 5.14 µM); MIC ([22]; Enterobacter cloacae, 12001, 18 h): 1.56 mg/L (≈ 5.14 µM); MIC (Proteus vulgaris, 3167 [23]; Proteus vulgaris, 3167, 18 h): 1.56 mg/L (≈ 5.14 µM); MIC [24]: 100 mg/L (≈ 330 µM)
